Measured values: ChEMBL document CHEMBL1153696, “Hypoglycemic polysaccharides from the tuberous root of Liriope spicata” (2009)
Activity calls are given as the source filed them. The calls are words filed in the database; no cut-off is given here.

Tests used:
Mus musculus [1] = experiment: Antidiabetic activity in BALB/c mouse type 2 diabetic model assessed as reduction of fasting blood glucose level at 2 mg/kg, po QD measured after 1 week by glucometry (Rvb=14.89 +/- 1.37 mmol/L); type: functional
Mus musculus [2] = experiment: Antidiabetic activity in BALB/c mouse type 2 diabetic model assessed as reduction of fasting blood glucose level at 2 mg/kg, po QD measured after 2 weeks by glucometry (Rvb=14.86 +/- 1.58 mmol/L); type: functional
Mus musculus [3] = experiment: Antidiabetic activity in BALB/c mouse type 2 diabetic model assessed as reduction of fasting blood glucose level at 2 mg/kg, po QD measured after 3 weeks by glucometry (Rvb=14.89 +/- 1.42 mmol/L); type: functional
Mus musculus [4] = experiment: Antidiabetic activity in BALB/c mouse type 2 diabetic model assessed as reduction of fasting blood glucose level at 2 mg/kg, po QD measured after 4 weeks by glucometry (Rvb=15.03 +/- 1.47 mmol/L); type: functional
Mus musculus [5] = experiment: Hypoglycemic effect in type 2 diabetic BALB/c mouse model assessed as reduction in blood glucose excursion at 100 to 200 mg/kg, po pretreated 60 mins before glucose challenge measured up to 3 hrs by one-touch glucometer relative to diabetic control; type: functional, organism-based
Mus musculus [6] = experiment: Hypoglycemic effect in type 2 diabetic BALB/c mouse model assessed as reduction in blood glucose excursion at 2 mg/kg, po pretreated 60 mins before glucose challenge measured up to 3 hrs by one-touch glucometer relative to diabetic control; type: functional, organism-based; design: dose 2 mg/kg
Mus musculus [7] = experiment: Antidiabetic activity in BALB/c mouse type 2 diabetic model assessed as reduction of fasting blood glucose level at 200 mg/kg, po QD measured after 1 week by glucometry (Rvb=14.89 +/- 1.37 mmol/L); type: functional
Mus musculus [8] = experiment: Antidiabetic activity in BALB/c mouse type 2 diabetic model assessed as reduction of fasting blood glucose level at 100 mg/kg, po QD measured after 1 week by glucometry (Rvb=14.89 +/- 1.37 mmol/L); type: functional
Mus musculus [9] = experiment: Antidiabetic activity in BALB/c mouse type 2 diabetic model assessed as reduction of fasting blood glucose level at 200 mg/kg, po QD measured after 2 weeks by glucometry (Rvb=14.86 +/- 1.58 mmol/L); type: functional
Mus musculus [10] = experiment: Antidiabetic activity in BALB/c mouse type 2 diabetic model assessed as reduction of fasting blood glucose level at 100 mg/kg, po QD measured after 2 weeks by glucometry (Rvb=14.86 +/- 1.58 mmol/L); type: functional
Mus musculus [11] = experiment: Antidiabetic activity in BALB/c mouse type 2 diabetic model assessed as reduction of fasting blood glucose level at 200 mg/kg, po QD measured after 3 weeks by glucometry (Rvb=14.89 +/- 1.42 mmol/L); type: functional
Mus musculus [12] = experiment: Antidiabetic activity in BALB/c mouse type 2 diabetic model assessed as reduction of fasting blood glucose level at 100 mg/kg, po QD measured after 3 weeks by glucometry (Rvb=14.89 +/- 1.42 mmol/L); type: functional
Mus musculus [13] = experiment: Antidiabetic activity in BALB/c mouse type 2 diabetic model assessed as reduction of fasting blood glucose level at 200 mg/kg, po QD measured after 4 weeks by glucometry (Rvb=15.03 +/- 1.47 mmol/L); type: functional
Mus musculus [14] = experiment: Antidiabetic activity in BALB/c mouse type 2 diabetic model assessed as reduction of fasting blood glucose level at 100 mg/kg, po QD measured after 4 weeks by glucometry (Rvb=15.03 +/- 1.47 mmol/L); type: functional

SMILES: CN(CCOc1ccc(CC2SC(=O)NC2=O)cc1)c1ccccn1 (stereo unspecified) [ROSIGLITAZONE]
- Activity (Mus musculus [1]): 9.58 mmol/L
- Activity (Mus musculus [2]): 5.54 mmol/L
- Activity (Mus musculus [3]): 5.04 mmol/L
- Activity (Mus musculus [4]): 4.94 mmol/L
- Activity (Mus musculus [5]): Active
- Activity (Mus musculus [6]): Active

SMILES: OC[C@H]1OC(CO)(OC[C@H]2O[C@@](CO[C@]3(CO[C@]4(CO[C@]5(CO[C@]6(CO[C@]7(CO)O[C@H](CO)[C@@H](O)[C@@H]7O)O[C@H](CO[C@]7(CO)O[C@H](CO)[C@@H](O)[C@@H]7O)[C@@H](O)[C@@H]6O)O[C@H](CO)[C@@H](O)[C@@H]5O)O[C@H](CO[C@]5(CO)O[C@H](CO)[C@@H](O)[C@@H]5O)[C@@H](O)[C@@H]4O)O[C@H](CO)[C@@H](O)[C@@H]3O)(OC[C@@]3(OC[C@@]4(OC[C@@]5(OC[C@@]6(OC[C@@]7(OC[C@@]8(OC[C@@]9(O[C@@H]%10O[C@H](CO)[C@@H](O)[C@H](O)[C@H]%10O)O[C@H](CO)[C@@H](O)[C@@H]9O)O[C@H](CO[C@]9(CO)O[C@H](CO)[C@@H](O)[C@@H]9O)[C@@H](O)[C@@H]8O)O[C@H](CO)[C@@H](O)[C@@H]7O)O[C@H](CO[C@]7(CO)O[C@H](CO)[C@@H](O)[C@@H]7O)[C@@H](O)[C@@H]6O)O[C@H](CO)[C@@H](O)[C@@H]5O)O[C@H](CO[C@]5(CO)O[C@H](CO)[C@@H](O)[C@@H]5O)[C@@H](O)[C@@H]4O)O[C@H](CO)[C@@H](O)[C@@H]3O)[C@@H](O)[C@@H]2O)[C@@H](O)[C@@H]1O (stereo partly specified)
- Activity (Mus musculus [7]): 9.35 mmol/L
- Activity (Mus musculus [8]): 9.71 mmol/L
- Activity (Mus musculus [9]): 7.25 mmol/L
- Activity (Mus musculus [10]): 7.96 mmol/L
- Activity (Mus musculus [11]): 5.44 mmol/L
- Activity (Mus musculus [12]): 4.83 mmol/L
- Activity (Mus musculus [13]): 4.83 mmol/L
- Activity (Mus musculus [14]): 5.13 mmol/L
- Activity (Mus musculus [5]): Active
- Activity (Mus musculus [6]): Active

SMILES: OC[C@H]1O[C@@](CO)(OC[C@H]2O[C@@](CO[C@]3(CO[C@]4(CO)O[C@H](CO)[C@@H](O)[C@@H]4O)O[C@H](CO)[C@@H](O)[C@@H]3O)(OC[C@@]3(OC[C@@]4(OC[C@@]5(OC[C@@]6(OC[C@@]7(OC[C@@]8(OC[C@@]9(OC[C@@]%10(OC[C@@]%11(OC[C@@]%12(OC[C@@]%13(OC[C@@]%14(OC[C@@]%15(OC[C@@]%16(OC[C@@]%17(OC[C@@]%18(O[C@@H]%19O[C@H](CO)[C@@H](O)[C@H](O)[C@H]%19O)O[C@H](CO)[C@@H](O)[C@@H]%18O)O[C@H](CO[C@]%18(CO)O[C@H](CO)[C@@H](O)[C@@H]%18O)[C@@H](O)[C@@H]%17O)O[C@H](CO)[C@@H](O)[C@@H]%16O)O[C@H](CO)[C@@H](O)[C@@H]%15O)O[C@H](CO[C@]%15(CO)O[C@H](CO)[C@@H](O)[C@@H]%15O)[C@@H](O)[C@@H]%14O)O[C@H](CO)[C@@H](O)[C@@H]%13O)O[C@H](CO)[C@@H](O)[C@@H]%12O)O[C@H](CO[C@]%12(CO)O[C@H](CO)[C@@H](O)[C@@H]%12O)[C@@H](O)[C@@H]%11O)O[C@H](CO)[C@@H](O)[C@@H]%10O)O[C@H](CO)[C@@H](O)[C@@H]9O)O[C@H](CO[C@]9(CO)O[C@H](CO)[C@@H](O)[C@@H]9O)[C@@H](O)[C@@H]8O)O[C@H](CO)[C@@H](O)[C@@H]7O)O[C@H](CO)[C@@H](O)[C@@H]6O)O[C@H](CO[C@]6(CO)O[C@H](CO)[C@@H](O)[C@@H]6O)[C@@H](O)[C@@H]5O)O[C@H](CO)[C@@H](O)[C@@H]4O)O[C@H](CO)[C@@H](O)[C@@H]3O)[C@@H](O)[C@@H]2O)[C@@H](O)[C@@H]1O
- Activity (Mus musculus [7]): 8.65 mmol/L
- Activity (Mus musculus [8]): 10.04 mmol/L
- Activity (Mus musculus [9]): 6.16 mmol/L
- Activity (Mus musculus [10]): 7.05 mmol/L
- Activity (Mus musculus [11]): 5.14 mmol/L
- Activity (Mus musculus [12]): 4.7 mmol/L
- Activity (Mus musculus [13]): 4.78 mmol/L
- Activity (Mus musculus [14]): 4.63 mmol/L
- Activity (Mus musculus [5]): Active
- Activity (Mus musculus [6]): Active
